Article PMC11981937 (Nature, 2025)
Several values for one entry are separate records, joined by “and”; a condition that tells them apart may be missing. Equal values may be shown once.

What was measured:
[1] = In vivo mortality (stray panel in source data sheet Fig. 3d)
SARS-CoV-2 B1 = assay type: in vivo, Syrian golden hamster; conditions: pre-exposure
[2] = assay type: in vivo, Syrian golden hamster; conditions: Molnupiravir 200 mpk BID, pre-exposure

Compound: C[C@@]1(O)[C@H](O)[C@@H](CO)O[C@H]1n1ccc(N)nc1=O [2'CMC, reference compound]
- % Survival ([1]; 2'CMC, d p.i. 0): 100%
- % Survival ([1]; 2'CMC, d p.i. 1): 100%
- % Survival ([1]; 2'CMC, d p.i. 2): 100%
- % Survival ([1]; 2'CMC, d p.i. 3): 100%
- % Survival ([1]; 2'CMC, d p.i. 4): 100%
- % Survival ([1]; 2'CMC, d p.i. 5): 100%
- % Survival ([1]; 2'CMC, d p.i. 6): 100%
- % Survival ([1]; 2'CMC, d p.i. 7): 100%
- % Survival ([1]; 2'CMC, d p.i. 8): 100%
- % Survival ([1]; 2'CMC, d p.i. 9): 100%
- % Survival ([1]; 2'CMC, d p.i. 10): 100%
- % Survival ([1]; 2'CMC, d p.i. 11): 100%
- % Survival ([1]; 2'CMC, d p.i. 12): 100%
- % Survival ([1]; 2'CMC, d p.i. 13): 90%
- % Survival ([1]; 2'CMC, d p.i. 14): 80%
- % Survival ([1]; 2'CMC, d p.i. 15): 80%
- % Survival ([1]; 2'CMC, d p.i. 16): 80%
- % Survival ([1]; 2'CMC, d p.i. 17): 80%
- % Survival ([1]; 2'CMC, d p.i. 18): 60%
- % Survival ([1]; 2'CMC, d p.i. 19): 60%
- % Survival ([1]; 2'CMC, d p.i. 20): 60%
- % Survival ([1]; 2'CMC, d p.i. 21): 60%
- % Survival ([1]; 2'CMC, d p.i. 22): 60%
- % Survival ([1]; 2'CMC, d p.i. 23): 60%
- % Survival ([1]; 2'CMC, d p.i. 24): 50%
- % Survival ([1]; 2'CMC, d p.i. 25): 50%

Compound: COc1cc(N[C@H](C(=O)c2c[nH]c3ccc(OC(F)(F)F)cc23)c2ccc(Cl)cc2OC)cc(S(C)(=O)=O)c1 [JNJ-1802]
- % Survival ([1]; 802R_0.3, BID, d p.i. 0): 100%
- % Survival ([1]; 802R_0.3, BID, d p.i. 1): 100%
- % Survival ([1]; 802R_0.3, BID, d p.i. 2): 100%
- % Survival ([1]; 802R_0.3, BID, d p.i. 3): 100%
- % Survival ([1]; 802R_0.3, BID, d p.i. 4): 100%
- % Survival ([1]; 802R_0.3, BID, d p.i. 5): 100%
- % Survival ([1]; 802R_0.3, BID, d p.i. 6): 100%
- % Survival ([1]; 802R_0.3, BID, d p.i. 7): 100%
- % Survival ([1]; 802R_0.3, BID, d p.i. 8): 100%
- % Survival ([1]; 802R_0.3, BID, d p.i. 9): 100%
- % Survival ([1]; 802R_0.3, BID, d p.i. 10): 100%
- % Survival ([1]; 802R_0.3, BID, d p.i. 11): 100%
- % Survival ([1]; 802R_0.3, BID, d p.i. 12): 100%
- % Survival ([1]; 802R_0.3, BID, d p.i. 13): 100%
- % Survival ([1]; 802R_0.3, BID, d p.i. 14): 100%
- % Survival ([1]; 802R_0.3, BID, d p.i. 15): 100%
- % Survival ([1]; 802R_0.3, BID, d p.i. 16): 100%
- % Survival ([1]; 802R_0.3, BID, d p.i. 17): 90%
- % Survival ([1]; 802R_0.3, BID, d p.i. 18): 90%
- % Survival ([1]; 802R_0.3, BID, d p.i. 19): 90%
- % Survival ([1]; 802R_0.3, BID, d p.i. 20): 90%
- % Survival ([1]; 802R_0.3, BID, d p.i. 21): 90%
- % Survival ([1]; 802R_0.3, BID, d p.i. 22): 90%
- % Survival ([1]; 802R_0.3, BID, d p.i. 23): 90%
- % Survival ([1]; 802R_0.3, BID, d p.i. 24): 90%
- % Survival ([1]; 802R_0.3, BID, d p.i. 25): 90%
- % Survival ([1]; 802R_1, BID, d p.i. 0): 100%
- % Survival ([1]; 802R_1, BID, d p.i. 1): 100%
- % Survival ([1]; 802R_1, BID, d p.i. 2): 100%
- % Survival ([1]; 802R_1, BID, d p.i. 3): 100%
- % Survival ([1]; 802R_1, BID, d p.i. 4): 100%
- % Survival ([1]; 802R_1, BID, d p.i. 5): 100%
- % Survival ([1]; 802R_1, BID, d p.i. 6): 100%
- % Survival ([1]; 802R_1, BID, d p.i. 7): 100%
- % Survival ([1]; 802R_1, BID, d p.i. 8): 100%
- % Survival ([1]; 802R_1, BID, d p.i. 9): 100%
- % Survival ([1]; 802R_1, BID, d p.i. 10): 100%
- % Survival ([1]; 802R_1, BID, d p.i. 11): 100%
- % Survival ([1]; 802R_1, BID, d p.i. 12): 100%
- % Survival ([1]; 802R_1, BID, d p.i. 13): 100%
- % Survival ([1]; 802R_1, BID, d p.i. 14): 100%
- % Survival ([1]; 802R_1, BID, d p.i. 15): 100%
- % Survival ([1]; 802R_1, BID, d p.i. 16): 100%
- % Survival ([1]; 802R_1, BID, d p.i. 17): 100%
- % Survival ([1]; 802R_1, BID, d p.i. 18): 100%
- % Survival ([1]; 802R_1, BID, d p.i. 19): 100%
- % Survival ([1]; 802R_1, BID, d p.i. 20): 100%
- % Survival ([1]; 802R_1, BID, d p.i. 21): 100%
- % Survival ([1]; 802R_1, BID, d p.i. 22): 100%
- % Survival ([1]; 802R_1, BID, d p.i. 23): 100%
- % Survival ([1]; 802R_1, BID, d p.i. 24): 100%
- % Survival ([1]; 802R_1, BID, d p.i. 25): 100%
- % Survival ([1]; 802R_3, BID, d p.i. 0): 100%
- % Survival ([1]; 802R_3, BID, d p.i. 1): 100%
- % Survival ([1]; 802R_3, BID, d p.i. 2): 100%
- % Survival ([1]; 802R_3, BID, d p.i. 3): 100%
- % Survival ([1]; 802R_3, BID, d p.i. 4): 100%
- % Survival ([1]; 802R_3, BID, d p.i. 5): 100%
- % Survival ([1]; 802R_3, BID, d p.i. 6): 100%
- % Survival ([1]; 802R_3, BID, d p.i. 7): 100%
- % Survival ([1]; 802R_3, BID, d p.i. 8): 100%
- % Survival ([1]; 802R_3, BID, d p.i. 9): 100%
- % Survival ([1]; 802R_3, BID, d p.i. 10): 100%
- % Survival ([1]; 802R_3, BID, d p.i. 11): 100%
- % Survival ([1]; 802R_3, BID, d p.i. 12): 100%
- % Survival ([1]; 802R_3, BID, d p.i. 13): 100%
- % Survival ([1]; 802R_3, BID, d p.i. 14): 100%
- % Survival ([1]; 802R_3, BID, d p.i. 15): 100%
- % Survival ([1]; 802R_3, BID, d p.i. 16): 100%
- % Survival ([1]; 802R_3, BID, d p.i. 17): 100%
- % Survival ([1]; 802R_3, BID, d p.i. 18): 100%
- % Survival ([1]; 802R_3, BID, d p.i. 19): 100%
- % Survival ([1]; 802R_3, BID, d p.i. 20): 100%
- % Survival ([1]; 802R_3, BID, d p.i. 21): 100%
- % Survival ([1]; 802R_3, BID, d p.i. 22): 90%
- % Survival ([1]; 802R_3, BID, d p.i. 23): 90%
- % Survival ([1]; 802R_3, BID, d p.i. 24): 80%
- % Survival ([1]; 802R_3, BID, d p.i. 25): 80%
- % Survival ([1]; 802R_10, BID, d p.i. 0): 100%
- % Survival ([1]; 802R_10, BID, d p.i. 1): 100%
- % Survival ([1]; 802R_10, BID, d p.i. 2): 100%
- % Survival ([1]; 802R_10, BID, d p.i. 3): 100%
- % Survival ([1]; 802R_10, BID, d p.i. 4): 100%
- % Survival ([1]; 802R_10, BID, d p.i. 5): 100%
- % Survival ([1]; 802R_10, BID, d p.i. 6): 100%
- % Survival ([1]; 802R_10, BID, d p.i. 7): 100%
- % Survival ([1]; 802R_10, BID, d p.i. 8): 100%
- % Survival ([1]; 802R_10, BID, d p.i. 9): 100%
- % Survival ([1]; 802R_10, BID, d p.i. 10): 100%
- % Survival ([1]; 802R_10, BID, d p.i. 11): 100%
- % Survival ([1]; 802R_10, BID, d p.i. 12): 100%
- % Survival ([1]; 802R_10, BID, d p.i. 13): 100%
- % Survival ([1]; 802R_10, BID, d p.i. 14): 100%
- % Survival ([1]; 802R_10, BID, d p.i. 15): 80%
- % Survival ([1]; 802R_10, BID, d p.i. 16): 80%
- % Survival ([1]; 802R_10, BID, d p.i. 17): 80%
- % Survival ([1]; 802R_10, BID, d p.i. 18): 80%
- % Survival ([1]; 802R_10, BID, d p.i. 19): 80%
- % Survival ([1]; 802R_10, BID, d p.i. 20): 80%
- % Survival ([1]; 802R_10, BID, d p.i. 21): 80%
- % Survival ([1]; 802R_10, BID, d p.i. 22): 80%
- % Survival ([1]; 802R_10, BID, d p.i. 23): 80%
- % Survival ([1]; 802R_10, BID, d p.i. 24): 80%
- % Survival ([1]; 802R_10, BID, d p.i. 25): 80%

Compound: CC(C)C(=O)OC[C@H]1O[C@@H](n2ccc(NO)nc2=O)[C@H](O)[C@@H]1O [molnupiravir, reference compound]
- Histopathology score, average (SARS-CoV-2 B1; 200 mg/kg/ BID, n=5): 2.10
- Histopathology score, median (SARS-CoV-2 B1; 200 mg/kg/ BID, n=5): 1.50
- Infectious virus in the lung (TCID50/mg), average Log 10 (SARS-CoV-2 B1; 200 mg/kg/ BID, n=5): 4.54 Log 10
- Infectious virus in the lung (TCID50/mg), median Log 10 (SARS-CoV-2 B1; 200 mg/kg/ BID, n=5): 4.21 Log 10
- Viral load (viral RNA) in the lung, average Log 10 (SARS-CoV-2 B1; 200 mg/kg/ BID, n=5): 9.78 Log 10
- Viral load (viral RNA) in the lung, median Log 10 (SARS-CoV-2 B1; 200 mg/kg/ BID, n=5): 9.74 Log 10
- Histopathology score, individual animal (SARS-CoV-2 B1; 200 mg/kg/ BID, 200 mg/kg): 1.5 and 3
- Infectious virus in the lung (TCID50/mg), Log 10, individual animal (SARS-CoV-2 B1; 200 mg/kg/ BID, 200 mg/kg): 4.01 Log 10 and 3.36 Log 10 and 6.13 Log 10 and 4.21 Log 10 and 4.99 Log 10
- Infectious virus in the lung, individual animal (SARS-CoV-2 B1; 200 mg/kg/ BID, 200 mg/kg): 10248.12 TCID50/mg and 2288.60 TCID50/mg and 1353038.68 TCID50/mg and 16040.54 TCID50/mg and 98821.18 TCID50/mg
- Viral load (viral RNA) in the lung, Copy number, individual animal (SARS-CoV-2 B1; 200 mg/kg/ BID, 200 mg/kg): 5.44E+09 and 8.11E+09 and 8.53E+09 and 4.38E+09 and 4.90E+09
- Viral load (viral RNA) in the lung, Log 10, individual animal (SARS-CoV-2 B1; 200 mg/kg/ BID, 200 mg/kg): 9.74 Log 10 and 9.91 Log 10 and 9.93 Log 10 and 9.64 Log 10 and 9.69 Log 10
- decline in antiviral parameters (in words) (SARS-CoV-2 B1; 300 mg per kg BID, reference): not significant
- % body weight change compared to day 0, Avg ([2]; day 4 vs day 0, group average): 3.04%
- % body weight change compared to day 0 ([2]; day 4 vs day 0, individual animals): 2.6% and 2.4% and 5% and 3% and 2.2%
